Experimental data reported in US12409169B2, “Composition comprising clay mineral complex for prevention, alleviation, and treatment of inflammatory bowel disease, preparation method for composition, and method for alleviation and treatment for inflammatory bowel disease” (Korea Institute Of Geoscience And Mineral Resources, priority 2019, dated 2025).
“And” between values parts separate entries of the source, which are not always exact repeats. Equal entries are not always repeated. Where two headings read alike, the source gives them in different places.

Key:
[1] = pharmacokinetic analysis after oral administration in SD rats; type: in vivo; conditions: 10 mg/kg based on vactosertib
Method: In order to confirm a change in plasma concentration in actual oral administration of the bentonite/vactosertib complex, a pharmacokinetic analysis test was performed using SD rats of about 7 weeks of age. The existing vactosertib powder, an aqueous solution dissolved with the vactosertib powder in a pH 3 buffer solution, and the bentonite/vactosertib complex were used as samples and a dose was set to 10 mg/kg based on the drug (that is, vactosertib) amount. Each sample was orally administered in rats and then the blood was collected by time, and preprocessed to analyze a plasma drug concentration.

[2] = elution test (drug release through semi-permeable membrane); type: physicochemical
Method: An elution test of vactosertib was performed to confirm a change in which the vactosertib was adsorbed onto bentonite and then released. At this time, in order to predict the drug release from the upper digestive tract and the lower digestive tract, the elution was performed under different pH conditions. To this end, the test was performed by using a 0.1 N HCl solution (pH 1.2), a 50 mM acetate buffer solution (pH 4.5), and a 50 mM phosphate buffer solution (pH 7.4) as eluates, respectively. At this time, in all the eluates, Tween80 was dissolved and used at a concentration of 0.1% to impart a sufficient elution environment of vactosertib. The vactosertib powder and the bentonite/vactosertib complex were formed to a dispersion to be 1 mg/mL based on the vactosertib concentration and 0.3 mL thereof was sealed in a semi-permeable membrane and then put in 30 mL of each eluate to perform the elution. Thereafter, each eluate was collected by 0.2 mL for each predetermined time, a drug concentration was analyzed to compare elution rates.

[3] = system: interleukin 6 (IL-6); test: immunohistochemical IL-6 staining of large intestine tissue in DSS ulcerative colitis mouse model; type: in vivo, C57BL/6 mice; conditions: DSS 2% mice
Method: Animal tests were performed to confirm anti-inflammatory, anti-crypt cell damage, anti-ulcer, anti-edema, and anti-fibrosis effects of a vactosertib/bentonite complex using a mouse model of ulcerative colitis as one of inflammatory bowel diseases. C57BL/6 mice were selected as test animals, and in order to induce ulcerative colitis, a cycle in which an inflammation inducing substance, DSS was added in drinking water and supplied for 7 days, and then normal drinking water was supplied for 14 days was repeated. Such an inflammation inducing cycle was repeated 3 times to induce chronic inflammation, ulcer and fibrous conditions in the large intestine. […]
In order to observe an immunohistochemical change of a large intestine tissue, a tissue fixed to a 10% neutral buffer formalin solution was sliced, attached to a coating slide, and deparaffinized, and then stained, and IHC of reacting with antibodies IL-6 (Interleukin-6), α-SMA ((α-smooth muscle actin), and TGF-β (transforming growth factor beta) on each slide was requested to an external institute (Notus) and the test was performed. In an individual-specific tissue slide, three constant zones were specified and imaged 100 times, a stained portion to the total area was measured, and a mean value was calculated (Zen 2.3 blue edition, Carl Zeiss, Germany). […]

[4] = system: ulcerative colitis mouse model induced with DSS; test: histopathological severity scores in ulcerative colitis mouse model induced with DSS; type: in vivo, C57BL/6 mice; conditions: DSS mice, Dunn's test
Method: Animal tests were performed to confirm anti-inflammatory, anti-crypt cell damage, anti-ulcer, anti-edema, and anti-fibrosis effects of a vactosertib/bentonite complex using a mouse model of ulcerative colitis as one of inflammatory bowel diseases. C57BL/6 mice were selected as test animals, and in order to induce ulcerative colitis, a cycle in which an inflammation inducing substance, DSS was added in drinking water and supplied for 7 days, and then normal drinking water was supplied for 14 days was repeated. Such an inflammation inducing cycle was repeated 3 times to induce chronic inflammation, ulcer and fibrous conditions in the large intestine. To test animal groups except for control groups, from 3 weeks after a first inflammation inducing cycle was elapsed, bentonite, vactosertib, or a vactosertib/bentonite complex was administered twice a day (10 am, 4 pm), 5 days a week, and for total 6 weeks. The bentonite per 1 kg of converted mouse weight was administered with 106.8 mg, the vactosertib was administered with 20.0 mg, and the complex was administered with 126.8 mg. At this time, as the vactosertib/bentonite complex, the complex prepared in Test Example 5 was used. For each test group used in ulcerative colitis animal tests, inflammation inducing substances, test substances, doses of the test substances, and the number of test animals were shown in Table 7 below.
C57BL/6 mice used in the test were supplied from the Orient Bio Gapyeong Center (699-13, Mokdong-ri, Buk-yeon, Gapyeong-gun, Gyeonggi-do), and about 6-week-old during obtaining. For about 7 days after obtaining, the rats were quarantined and purified and then healthy animals were used for the test. When the induced material was administered, the test animals were about 8-week-old, and 52 mice were used. The test animals were bred in the 2nd floor of Clean Animal Room, Bioscience Research Institute, Research Institute of Medical Science at Inha University, and circulated in at least 10 times/hour and bred under conditions of a temperature of 22-4° C., relative humidity of 50±20%, and illuminance of 150 to 300 Lux of lighting on for 12 hours (lighting: 08:00 to 20:00). A radiation solid feed (FeedLab GMO Free Rodent Diet GF2005) for rodents was free-taken using a feeder and water sterilized by an ultraviolet-ray flowing water sterilizer and high-pressure vapor after reverse osmosis was free-taken using a polysulfonate-made drinking water bottle (300 ml).
In order to induce ulcerative colitis, 2% DSS was added in drinking water of mice and continuously supplied for first 7 days of every test cycle (3 weeks). The test substances were orally administered 2 times a day, 5 days a week, and for a total of 6 weeks at the same time of second DSS induction (FIG. 14). […]
In order to evaluate a treatment effect of test substances on ulcerative colitis, after the end of the test, the animal was anesthetized, opened, and bled and then a histopathological test was performed for each individual. Histopathological findings were subdivided and scored into severity changes of inflammation, crypt cell damage, ulcer, edema, and fibrosis as shown in Table 8 below. […]
Statistical analysis was performed using Graphpad Prism version 8.01, and a minimum unit of significance was set to p<0.05. Since all measured histopathological indexes were nonparametric data, the indexes were represented by a median, 25% to 75% values (in the box), and minimum-maximum values (both ends) in the graph (FIGS. 15 to 20). […]

[5] = adsorption rate of vactosertib onto bentonite; type: physicochemical; conditions: vactosertib 0.4 mg/ml, bentonite 0.5 mg/mL, pH 1
Method: The adsorption rates of vactosertib and bentonite according to the pH of a solvent were evaluated. At this time, considering that the vactosertib was not dissolved in neutral, but stated to be dissolved in about 1 mg/mL from pH 3, a test was performed by setting a reaction pH to pH 1, pH 2, and pH 3. First, 10 mg/mL of the vactosertib was dissolved in a 0.1 N hydrochloric acid aqueous solution and diluted with a hydrochloric acid aqueous solution or a phosphate buffer solution (pH 1: 0.1 N hydrochloric acid aqueous solution, pH 2, pH 3: phosphate buffer solution) corresponding to each pH to adjust the concentration to 1 mg/mL. […] Thereafter, a drug concentration of a supernatant obtained by centrifugation (3,000 rpm, 5 minutes) was analyzed. Through this, the drug amount adsorbed onto the bentonite was indirectly calculated as shown in Equation 1 by removing the remaining drug amount in the supernatant from the entirely applied drug (vactosertib) to calculate an adsorption rate. […] In addition, a difference in adsorption rate according to the concentration of vactosertib was measured. […] In addition, a difference in adsorption rate according to an absolute concentration was measured.

SMILES	AUCinf [1] [µg·min/mL]	AUClast [1] [µg·min/mL]	Cmax [1] [ng/mL]	Tmax [1] [min]	Tmax ([1]; listed as vactosertib aqueous solution)	half-life ([1]; SD, rat, plasma, po, 10 mg/kg) [min]	Cmax ([1]; SD, rat, plasma, po, 10 mg/kg, read-out: maximum plasma concentration Cmax) [ng/mL]	t1/2 [1] [min]	elution rate ([2]; 0.1 N HCl solution (pH 1.2), 0.1% Tween80)	elution rate ([2]; at a higher pH than pH 1.2)	reduction of IL-6 staining area as compared with G2 group [3] [%]	median of inflammation index compared with positive control group (G2) ([4]; FIG. 15)	median of crypt cell damage index compared with positive control group (G2) ([4]; FIG. 16)	median of ulcer index compared with positive control group (G2) ([4]; FIG. 17)	median of fibrosis index compared with positive control group (G2) ([4]; FIG. 19)	median of summed severity scores (except fibrosis) compared with positive control group (G2) ([4]; FIG. 20)	Adsorption rate [5] [%]
Cc1cccc(-c2[nH]c(CNc3ccccc3F)nc2-c2ccc3ncnn3c2)n1 [Vactosertib aqueaous solution]	111.97 ± 33.28	111.73 ± 33.05	2770 ± 550	15 ± 0	15 min and 15 ± 0 min	45.9 ± 6.84	2770 ± 550	–	–	–	–	–	–	–	–	–	–
Cc1cccc(-c2[nH]c(CNc3ccccc3F)nc2-c2ccc3ncnn3c2)n1 [Vactosertib powder]	45.46 ± 27.67	44.65 ± 28.60	610 ± 570	67.5 ± 75	–	–	–	51.96 ± 21.93	rapidly eluted	significantly decreased	–	–	–	–	–	–	–
Cc1cccc(-c2[nH]c(CNc3ccccc3F)nc2-c2ccc3ncnn3c2)n1 [vactosertib, N-((4-([1,2,4]triazolo[1,5-a]pyridine-6-yl)-5-(6-methylpyridin-2-yl)-1H-imidazol-2-yl)methy 1)-2-fluoroaniline]	–	–	–	–	–	–	–	–	–	–	23.0	slightly low	low in a median of a crypt cell damage index, but had no statistical significance	low in a median of an ulcer index, but had no statistical significance	slightly low	low in a median of an ulcer index, but had no statistical significance	28.0 ± 0.8
